{"source": "patent US6759422B2", "about": "“Ion channel modulating agents” (Neurosearch A/S, priority 1999, dated 2004)", "target": "T1, Intermediate-conductance Ca2+-activated K+ channels (IK channels), hIK (Homo sapiens, UniProt O15554)", "T1 construct": "expressed in transfected cells; host or cells: HEK293", "test": "Whole-cell patch-clamp recording of ionic current through IK channels stably expressed in HEK293 cells", "format": "cell-based", "conditions": "1 μM test compound, baseline hIK current set to 100 (>100 activator, <100 blocker, 200 = doubling), whole-cell mode", "protocol": "In this experiment the ionic current through Intermediate-conductance Ca^2+-activated K^+ channels (IK channels) is recorded in the whole-cell mode of the patch-clamp technique.\nIntermediate-conductance Ca^2+-activated K^+ channels (IK channels) have been cloned from human placenta and stably expressed in HEK293 cells.\nHuman IK (hIK) was excised from pT3T7 (GenBank Acc. No. N56819) using EcoR I and Not I and subcloned into the mammalian expression vector pNS1Z (NeuroSearch), a custom designed derivative of pcDNA3Zeo (InVitrogen) to give the plasmid construct pNS1Z_hIK. HEK293 tissue culture cells were grown in DMEM (Dulbecco's Modified Eagle Medium) supplemented with 10% FCS (foetal calf serum) at 37° C. in 5% CO2. One day prior to transfection, 10^6 cells were plated in a cell culture T25 flask. The following day, cells were transfected using lipofection (20 μL Lipofectamin™, Life Technologies, with 2.5 μg of the plasmid pNS1Z_hIK in a total volume of 540 μL).\nThe lipofection mixture was overlaid on the cells and incubated at 37° C. for 5 hours. The cells were then rinsed with regular media and grown for 72 hours in DMEM, 10% FCS at 37° C. in 5% CO2. […]\nExperiments are carried out on a patch-clamp workstation equipped with an autosampler. […] Data are stored directly on the harddisk and analysed by the IGOR software (wavemetrics, Lake Oswego, USA)\nThe whole-cell configuration of the patch clamp technique is applied. […] Cell capacitance is electronically compensated and the resistance between the pipette and the cell interior (the series resistance, Rs) is measured and compensated for. […]\nThe extracellular (bath) solution contains (conc. in mM): 144 KCl, 0.1 CaCl2, 3 MgCl2, 10 HEPES (pH=7.4). The intracellular (pipette) solution has the following composition (conc. in mM): 144 KCl, 10 EGTA, 10 HEPES (pH=7.2) as well as CaCl2 and MgCl2 in concentrations calculated to result in a free concentration of Ca^2+ between 100 nM and 300 nM. The free concentration of Mg^2+ is calculated to be 1 mM. […]"}
{"smiles": "Nc1nc2c(Cl)c(Cl)ccc2s1", "note": "[Compound 1, 2-amino-4,5-dichlorobenzothiazole]", "values": [{"measurement": "Ionic Currents: Value determined using 1 μM of the test compound", "result": 170}]}
{"smiles": "Cc1ccc2sc(N)nc2c1C", "note": "[Compound 2, 2-amino-4,5-dimethylbenzothiazole]", "values": [{"measurement": "Ionic Currents: Value determined using 1 μM of the test compound", "result": 130}]}
{"smiles": "Nc1nc2c3c(ccc2s1)CCCC3", "note": "[Compound 3, 2-amino-(5,6,7,8-tetrahydronaphto)-[1,2-d]-thiazole]", "values": [{"measurement": "Ionic Currents: Value determined using 1 μM of the test compound", "result": 400}]}
